# Data from BindingDB's records for doi:10.1016/s0960-894x(98)00237-6 (Fujisawa Pharmaceutical, 1999).
# What was measured:
# [1] = Compound was evaluated for the inhibition of […] I-CCK-8 binding at Cholecystokinin type B receptor on guinea pig cerebral cortical membranes
# [2] = Compound was evaluated for the inhibition of […] I-CCK-8 binding at CCK-B receptor Cholecystokinin type B receptor cerebral cortical membranes
Structure (SMILES),IC50 [1],IC50 [2]
"O=C(Nc1cccc(-c2nnn[nH]2)c1)NC1N=C(c2ccccc2F)c2ccccc2N(CC(=O)N2CC3CCC(CC3)C2)C1=O (stereo not drawn) [1-[1-[2-(3-Aza-bicyclo[3.2.2]non-3-yl)-2-oxo-ethyl]-5-(2-fluoro-phenyl)-2-oxo-2,3-dihydro-1H-benzo[e][1,4]diazepin-3-yl]-3-[3-(1H-tetrazol-5-yl)-phenyl]-urea]",0.087 nM,–
"O=C(Nc1cccc(-c2nnn[nH]2)c1)NC1N=C(c2ccccc2F)c2cccc(Cl)c2N(CC(=O)N2CC3CCC(CC3)C2)C1=O (stereo not drawn) [1-[1-[2-(3-Aza-bicyclo[3.2.2]non-3-yl)-2-oxo-ethyl]-9-chloro-5-(2-fluoro-phenyl)-2-oxo-2,3-dihydro-1H-benzo[e][1,4]diazepin-3-yl]-3-[3-(1H-tetrazol-5-yl)-phenyl]-urea]",–,0.66 nM
"CCc1cccc2c1N(CC(=O)N1CC3CCC(CC3)C1)C(=O)C(NC(=O)Nc1cccc(-c3nnn[nH]3)c1)N=C2c1ccccc1F (stereo not drawn) [1-[1-[2-(3-Aza-bicyclo[3.2.2]non-3-yl)-2-oxo-ethyl]-9-ethyl-5-(2-fluoro-phenyl)-2-oxo-2,3-dihydro-1H-benzo[e][1,4]diazepin-3-yl]-3-[3-(1H-tetrazol-5-yl)-phenyl]-urea]",0.81 nM,–
